In the NIST ThermoML archive (doi:10.1016/j.fluid.2015.11.037):
± gives the expanded uncertainty stated by the source. Values belong to the molecule of their own block, whether it stands above or below them.

Key:
[1] = activity coefficient (dimensionless); of the first substance listed, at infinite dilution; xn = mol fraction of the nth substance listed; settings: Liquid, x1 = 0
[2] = Liquid, Ebulliometric method (Recirculating still)
[3] = 333.15 K, 100 kPa, Rayleigh distillation
[4] = 303.15 K, 100 kPa, Rayleigh distillation
[5] = 313.15 K, 100 kPa, Rayleigh distillation
[6] = 323.15 K, 100 kPa, Rayleigh distillation
[7] = 293.15 K, 46.85 kPa, comparative ebulliometry
[8] = 303.15 K, 69.6 kPa, comparative ebulliometry
[9] = 311.15 K, 93.62 kPa, comparative ebulliometry

SMILES: CCCCO [butan-1-ol] + ClCCl
activity coefficient ([1]; 293.15 K, 100 kPa, differential distillation): 7.68 ± 0.65
activity coefficient ([1]; 303.15 K, 100 kPa, differential distillation): 6.18 ± 0.51
activity coefficient ([1]; 311.15 K, 100 kPa, differential distillation): 5.43 ± 0.57

SMILES: ClCCl [dichloromethane]
vapor or sublimation pressure ([2]; 285.89 K): 34.66 ± 0.065 kPa
vapor or sublimation pressure ([2]; 287.58 K): 37.33 ± 0.068 kPa
vapor or sublimation pressure ([2]; 289.94 K): 41.33 ± 0.073 kPa
vapor or sublimation pressure ([2]; 292.12 K): 45.33 ± 0.078 kPa
vapor or sublimation pressure ([2]; 294.15 K): 49.33 ± 0.083 kPa
vapor or sublimation pressure ([2]; 296.05 K): 53.33 ± 0.09 kPa
vapor or sublimation pressure ([2]; 298.41 K): 58.66 ± 0.095 kPa
vapor or sublimation pressure ([2]; 300.61 K): 63.99 ± 0.1 kPa
vapor or sublimation pressure ([2]; 302.67 K): 69.33 ± 0.11 kPa
vapor or sublimation pressure ([2]; 304.61 K): 74.66 ± 0.12 kPa
vapor or sublimation pressure ([2]; 306.43 K): 79.99 ± 0.12 kPa
vapor or sublimation pressure ([2]; 308.17 K): 85.33 ± 0.13 kPa
vapor or sublimation pressure ([2]; 309.82 K): 90.66 ± 0.13 kPa
vapor or sublimation pressure ([2]; 311.39 K): 95.99 ± 0.14 kPa

SMILES: ClCCl [dichloromethane] + CCCCO
activity coefficient ([1]; 283.15 K, 100 kPa, inert gas stripping): 1.85 ± 0.1
activity coefficient ([1]; 293.15 K, 100 kPa, inert gas stripping): 1.86 ± 0.11
activity coefficient ([1]; 303.15 K, 100 kPa, inert gas stripping): 1.86 ± 0.11
activity coefficient ([1]; 313.15 K, 100 kPa, inert gas stripping): 1.86 ± 0.11
activity coefficient ([1]; 323.15 K, 100 kPa, inert gas stripping): 1.83 ± 0.1
activity coefficient ([1]; 333.15 K, 100 kPa, inert gas stripping): 1.76 ± 0.1

SMILES: ClCCl [dichloromethane] + CCCO
activity coefficient ([1]; 283.15 K, 100 kPa, Inert gas stripping): 1.99 ± 0.12
activity coefficient ([1]; 293.15 K, 100 kPa, Inert gas stripping): 2 ± 0.16
activity coefficient ([1]; 303.15 K, 100 kPa, Inert gas stripping): 2.02 ± 0.16
activity coefficient ([1]; 313.15 K, 100 kPa, Inert gas stripping): 2.05 ± 0.16
activity coefficient ([1]; 323.15 K, 100 kPa, Inert gas stripping): 2.04 ± 0.16
activity coefficient ([1]; 333.15 K, 100 kPa, Inert gas stripping): 2.02 ± 0.16
activity coefficient [1, 3]: 2.06 ± 0.16

Other lines, results leading:

activity coefficient [1, 4]: 2.29 ± 0.18
activity coefficient [1, 5]: 2.3 ± 0.18
activity coefficient [1, 6]: 2.29 ± 0.18
activity coefficient [1, 3]: 2.27 ± 0.18
activity coefficient ([1]; 343.15 K, 100 kPa, Rayleigh distillation): 2.18 ± 0.25
SMILES: ClCCl [dichloromethane] + CCO

activity coefficient ([1]; 293.15 K, 100 kPa, Rayleigh distillation): 2.84 ± 0.24
activity coefficient [1, 4]: 2.87 ± 0.23
activity coefficient [1, 5]: 2.87 ± 0.23
activity coefficient [1, 6]: 2.83 ± 0.23
activity coefficient [1, 3]: 2.81 ± 0.22
SMILES: ClCCl [dichloromethane] + CO

activity coefficient [1, 7]: 9.56 ± 0.78
activity coefficient [1, 8]: 7.98 ± 0.65
activity coefficient [1, 9]: 7.09 ± 0.58
SMILES: CCO [ethanol] + ClCCl

activity coefficient [1, 7]: 13.4 ± 1.3
activity coefficient [1, 8]: 11.6 ± 1.1
activity coefficient [1, 9]: 9.86 ± 0.89
SMILES: CO [methanol] + ClCCl

activity coefficient [1, 7]: 8.38 ± 0.7
activity coefficient [1, 8]: 6.99 ± 0.61
activity coefficient [1, 9]: 5.98 ± 0.51
SMILES: CCCO [propan-1-ol] + ClCCl
